# Measured values: ChEMBL document CHEMBL5154677, “On-Demand Activation of a Bioorthogonal Prodrug of SN-38 with Fast Reaction Kinetics and High Releasing Efficiency In Vivo” (J Med Chem, 2022)
# Columns and labels:
# [1] = Dissociation constant , pKa of the compound; format: physicochemical
# [2] = Prodrug activation in human A549 cells assessed as SN-38 release by measuring increase in yellow fluorescence at 100 uM in presence of bis(pinacolato)diboron incubated for 1 hr by FITC staining based confocal fluorescence microscopy; format: cell-based; settings: a549, 1 h
# [3] = test system: A549; experiment: Cytotoxicity against human A549 cells assessed as reduction in cell viability incubated for 72 hrs in presence of bis(pinacolato)diboron by CCK-8 assay; format: functional, cell-based; settings: A549, 72 h
# [4] = Prodrug activation in human A549 cells assessed as SN-38 release by measuring increase in blue fluorescence intensity at 100 uM in presence of bis(pinacolato)diboron incubated for 1 hr by DAPI staining based confocal fluorescence microscopy; format: cell-based; settings: a549, 1 h
# [5] = test system: A549; experiment: Cytotoxicity against human A549 cells assessed as reduction in cell viability measured after 72 hrs by CCK-8 assay; format: functional, cell-based; settings: A549, 72 h
# [6] = test system: A549; experiment: Cytotoxicity against human A549 cells assessed as cell growth inhibition incubated for 120 hrs by CCK-8 assay; format: functional, cell-based; settings: A549, 120 h
# [7] = Prodrug activation in human A549 cells assessed as reduction in blue fluorescence at 100 nM incubated for 72 to 120 hrs using DAPI staining based laser confocal fluorescence microscopy; format: cell-based; settings: a549, 0.1 µM, time 72-120 hrs
# [8] = Drug uptake in human A549 cells assessed as drug internalization by measuring increase in fluorescence intensity at 100 uM incubated for 1 hr by FITC staining based confocal fluorescence microscopy; format: ADME, cell-based; settings: a549, 1 h
# [9] = Solubility of compound in PBS; format: physicochemical; settings: buffer
# [10] = Prodrug activation in human A549 cells xenografted in nude mouse assessed as drug release by measuring increase in yellow fluorescence at 5 mg/kg, iv administered every 5 mins for 1 hr by FITC staining based confocal laser scanning microscopy; format: organism-based; settings: in vivo
# [11] = Prodrug activation in human A549 cells xenografted in nude mouse assessed as drug release by measuring reduction in blue fluorescence at 5 mg/kg, iv in presence of bis(pinacolato)diboron administered every 5 mins for 1 hr by DAPI staining based confocal laser scanning microscopy; format: organism-based; settings: in vivo
# [12] = Cytotoxicity against HEK293T cells assessed as reduction in cell viability measured after 72 hrs by CCK-8 assay; format: toxicity, cell-based, HEK-293T; settings: human
# [13] = Prodrug activation in human A549 cells assessed as increase in yellow fluorescence at 100 nM incubated for 72 to 120 hrs using FITC staining based laser confocal fluorescence microscopy; format: cell-based; settings: a549, 0.1 µM, time 72-120 hrs
# [14] = test system: A549; experiment: Cytotoxicity against human A549 cells assessed as cell growth inhibition incubated for 120 hrs in presence of bis(pinacolato)diboron by CCK-8 assay; format: functional, cell-based; settings: A549, 120 h
# [15] = Stability of prodrug in PBS at pH 7.4 assessed as retention time of drug released measured after 24 hrs by LC-MS analysis; format: physicochemical; settings: buffer, pH 7.4, 24 h
# [16] = Stability of the prodrug in PBS at pH 6.5 assessed as suppression of hydrolytic opening of the lactone ring by LC-MS analysis; format: physicochemical; settings: buffer
# [17] = Prodrug activation in human A549 cells xenografted in nude mouse assessed as drug release by measuring increase in yellow fluorescence at 5 mg/kg, iv in presence of bis(pinacolato)diboron administered every 5 mins for 1 hr by FITC staining based confocal laser scanning microscopy; format: organism-based; settings: in vivo
# [18] = Drug uptake in human A549 cells assessed as drug internalization by measuring blue fluorescence at 100 uM incubated for 1 hr by DAPI staining based confocal fluorescence microscopy; format: ADME, cell-based; settings: a549, 1 h
# [19] = Stability of prodrug in PBS at pH 7.4 assessed as 7-hydroxylcoumarin formation at 1 uM measured after 24 hrs by HPLC analysis; format: physicochemical; settings: buffer, pH 7.4, 24 h
smiles,measurement,setting,value
Nc1ccc(CO)cc1,pKa,[1],9.68
CCc1c2c(nc3ccc(OCc4ccc([N+](C)(C)[O-])cc4)cc13)-c1cc3c(c(=O)n1C2)COC(=O)[C@]3(O)CC,Drug metabolism,[2],Metabolite_Detected
same,IC50,[3],0.0296 µM
same,Drug metabolism,[4],Metabolite_Detected
same,IC50,[5],0.128 µM
same,IC50,[6],0.0171 µM
same,Drug metabolism,[7],Metabolite_Detected
same,Drug uptake,[8],Active
same,solubility,[9],3.2736 µM
same,Drug metabolism,[10],Metabolite_Notdetected
same,Drug metabolism,[11],Metabolite_Detected
same,IC50 at 72 h,[12],0.0663 µM
same,Drug metabolism,[13],Metabolite_Detected
same,IC50,[14],0.0092 µM
same,Retention_time,[15],1.8 min
same,Stability,[16],Stable
same,Drug metabolism,[17],Metabolite_Detected
same,Drug uptake,[18],Active
CN(C)c1ccc(CO)cc1,IC50 at 72 h,[12],> 100 µM
C[N+](C)([O-])c1ccc(COc2ccc3ccc(=O)oc3c2)cc1,Stability,[19],Stable
CCc1c2c(nc3ccc(O)cc13)-c1cc3c(c(=O)n1C2)COC(=O)[C@]3(O)CC [7-ETHYL-10-HYDROXYCAMPTOTHECIN],IC50,[5],0.0119 µM
same,pKa,[1],9.2
same,IC50,[6],0.0038 µM
same,solubility,[9],0.01101 µM
same,IC50 at 72 h,[12],0.0142 µM
